Test results taken from the supplement of paper PMC11061612.

Columns and labels:
Test in all cases: combination Emax (second highest fraction inhibited in the dose matrix, 72 h); higher = more inhibition; extreme values may be limits of the assay
NCI-H2722 (Mesothelioma) = test system: NCI-H2722 (Mesothelioma)
Summary of the method: (§1)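 After 24 hours at 37°C and 5% CO2 in 1536-well plates, cells in DMEM/F12 or RPMI plus 10% FBS received two-drug dose matrices for 72 hours. Viability came from CellTiter-Glo 2.0 luminescence and was scaled as inhibition, anchored at 0 by vehicle wells and at 1 by blank wells. Combination Emax is taken as the second-highest inhibition in the matrix, and Bliss excess as the observed combination effect less EA + EB − EA·EB, with EA and EB the single-agent effects.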

[1] = test system: KYAE-1 (Esophageal Adenocarcinoma)
Summary of the method: as §1

[2] = test system: LS-123 (Colorectal Carcinoma)
Summary of the method: as §1

[3] = test system: Hs-746T (Gastric Carcinoma)
Summary of the method: as §1

[4] = test system: NCI-H524 (Small Cell Lung Carcinoma)
Summary of the method: as §1

[5] = test system: ALL-PO (B-Lymphoblastic Leukemia)
Summary of the method: as §1

[6] = test system: SW1710 (Bladder Carcinoma)
Summary of the method: as §1

[7] = test system: BFTC-909 (Kidney Carcinoma)
Summary of the method: as §1

[8] = test system: HeLa (Cervical Carcinoma)
Summary of the method: as §1

[9] = test system: WSU-NHL (B-Cell Non-Hodgkin's Lymphoma)
Summary of the method: as §1

[10] = test system: SAS (Oral Cavity Carcinoma)
Summary of the method: as §1

[11] = test system: LNZTA3WT4 (Low Grade Glioma)
Summary of the method: as §1

LOXIMVI (Melanoma) = test system: LOXIMVI (Melanoma)
Summary of the method: as §1

[12] = test system: SNU-449 (Hepatocellular Carcinoma)
Summary of the method: as §1

[13] = test system: L-428 (Hodgkin's Lymphoma)
Summary of the method: as §1

GAMG (Glioblastoma) = test system: GAMG (Glioblastoma)
Summary of the method: as §1

[14] = test system: SNU-16 (Gastric Carcinoma)
Summary of the method: as §1

[15] = test system: LCLC-97TM1 (Non-Small Cell Lung Carcinoma)
Summary of the method: as §1

EW-11 (Ewing's Sarcoma) = test system: EW-11 (Ewing's Sarcoma)
Summary of the method: as §1

[16] = test system: OV-56 (Ovarian Carcinoma)
Summary of the method: as §1

| Structure (SMILES) | combination Emax (NCI-H2722 (Mesothelioma)) | combination Emax [1] | combination Emax [2] | combination Emax [3] | combination Emax [4] | combination Emax [5] | combination Emax [6] | combination Emax [7] | combination Emax [8] | combination Emax [9] | combination Emax [10] | combination Emax [11] | combination Emax (LOXIMVI (Melanoma)) | combination Emax [12] | combination Emax [13] | combination Emax (GAMG (Glioblastoma)) | combination Emax [14] | combination Emax [15] | combination Emax (EW-11 (Ewing's Sarcoma)) | combination Emax [16] |
| --- | --- | --- | --- | --- | --- | --- | --- | --- | --- | --- | --- | --- | --- | --- | --- | --- | --- | --- | --- | --- |
| CCN(CCO)CCCOc1ccc2c(Nc3cc(CC(=O)Nc4cccc(F)c4)[nH]n3)ncnc2c1 [AZD2811] + C[C@@H]1COCCN1C2=NC(=NC(=C2)C3(CC3)[S@](=N)(=O)C)C4=C5C=CNC5=NC=C4 [AZD6738] (first compound max 1 µM, 7x7, partner max 10 µM) | 0.326 | 0.122 | 0.632 | 0.582 | 1 | 0.979 | 0.398 | 0.777 | 0.567 | 0.967 | 0.83 | 0.754 | 0.746 | 0.176 | 0.78 | 0.399 | 0.974 | 0.842 | 0.686 | 0.609 |
| CCN(CCO)CCCOc1ccc2c(Nc3cc(CC(=O)Nc4cccc(F)c4)[nH]n3)ncnc2c1 [AZD2811] + O=C(c1cc(Cc2n[nH]c(=O)c3ccccc23)ccc1F)N1CCN(C(=O)C2CC2)CC1 [Olaparib] (first compound max 1 µM, 7x7, partner max 10 µM) | 0.204 | 0.208 | 0.301 | 0.232 | 0.945 | 0.975 | 0.185 | 0.221 | 0.293 | 0.931 | 0.197 | 0.223 | 0.336 | 0.205 | 0.348 | 0.399 | 0.705 | 0.319 | 0.564 | 0.179 |
| COc1nnc2ccc(N3CCC(c4ccc(OCCN5CCN(C)C(=O)[C@H]5C)cc4)CC3)nn12 [AZD5153] + C=CCn1c(=O)c2cnc(Nc3ccc(N4CCN(C)CC4)cc3)nc2n1-c1cccc(C(C)(C)O)n1 [AZD1775] (first compound max 1 µM, partner max 1 µM) | 0.58 | 0.0798 | 0.546 | 0.535 | 0.908 | 0.995 | 0.36 | 0.702 | 0.54 | 0.952 | 0.823 | 0.643 | 0.892 | 0.249 | 0.918 | 0.665 | 0.871 | 0.848 | 0.572 | 0.279 |
| COc1nnc2ccc(N3CCC(c4ccc(OCCN5CCN(C)C(=O)[C@H]5C)cc4)CC3)nn12 [AZD5153] + CC1(C)CCC(CN2CCN(c3ccc(C(=O)NS(=O)(=O)c4ccc(NCC5CCOCC5)c([N+](=O)[O-])c4)c(Oc4cnc5[nH]ccc5c4)c3)CC2)=C(c2ccc(Cl)cc2)C1 [Venetoclax] (first compound max 1 µM, 7x7, partner max 1 µM) | 0.471 | 0.0501 | 0.43 | 0.512 | 0.694 | 0.889 | 0.291 | 0.496 | 0.433 | 0.978 | 0.754 | 0.344 | 0.882 | 0.252 | 0.8 | 0.436 | 0.731 | 0.685 | 0.457 | 0.24 |
| COc1nnc2ccc(N3CCC(c4ccc(OCCN5CCN(C)C(=O)[C@H]5C)cc4)CC3)nn12 [AZD5153] + CCN(CCO)CCCOc1ccc2c(Nc3cc(CC(=O)Nc4cccc(F)c4)[nH]n3)ncnc2c1 [AZD2811] (first compound max 1 µM, 7x7, partner max 1 µM) | 0.521 | 0.0877 | 0.44 | 0.572 | 0.97 | 1 | 0.33 | 0.535 | 0.433 | 0.934 | 0.819 | 0.457 | 0.861 | 0.298 | 0.845 | 0.609 | 0.868 | 0.764 | 0.452 | 0.283 |
| COc1nnc2ccc(N3CCC(c4ccc(OCCN5CCN(C)C(=O)[C@H]5C)cc4)CC3)nn12 [AZD5153] + C[C@@H]1COCCN1C2=NC(=NC(=C2)C3(CC3)[S@](=N)(=O)C)C4=C5C=CNC5=NC=C4 [AZD6738] (first compound max 1 µM, 7x7, partner max 10 µM) | 0.589 | 0.263 | 0.59 | 0.63 | 0.915 | 0.987 | 0.396 | 0.876 | 0.589 | 0.99 | 0.921 | 0.809 | 0.97 | 0.166 | 0.929 | 0.682 | 0.98 | 0.87 | 0.692 | 0.793 |
